Active and inactive are the calls of the source.

Assay [1] has as its target T1, Fatty acid synthase (Homo sapiens, UniProt P49327). The assay can be described thus: inhibition of human FAS-TE enzyme activity – biochemical, endpoint fluorescence intensity, uHTS hits, dose response (AID 624327).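 Note: fluorescence from hydrolysis of an O-methyl fluorescein acyl ester substrate by the enzyme.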 It is filed as functional.
Assay [2] has as its target T1, Fatty acid synthase. The assay can be described thus: inhibition of human FAS-TE enzyme activity – biochemical, kinetic fluorescence intensity, dose response (AID 624326).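 Note: rate of fluorescence rise from hydrolysis of a fluorogenic O-methyl fluorescein ester substrate.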 It is filed as functional.
The target in assay [3] is T2, RNA-binding protein pos-1 (Caenorhabditis elegans, UniProt G5EF15).
T2 sequence (G5EF15 whole entry): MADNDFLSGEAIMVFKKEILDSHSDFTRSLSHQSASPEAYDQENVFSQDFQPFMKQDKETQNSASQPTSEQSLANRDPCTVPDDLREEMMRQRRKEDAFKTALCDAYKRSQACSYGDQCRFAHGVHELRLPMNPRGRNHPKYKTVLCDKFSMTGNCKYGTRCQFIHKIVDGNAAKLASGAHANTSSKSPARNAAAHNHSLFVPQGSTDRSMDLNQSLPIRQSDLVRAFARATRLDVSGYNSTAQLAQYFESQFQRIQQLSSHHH
Description: disruptors of C. elegans POS-1 RNA interaction – biochemical, fluorescence polarization, dose response (AID 1964).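 Note: purified POS-1 fused to maltose binding protein made in E. coli; potency of compounds blocking POS-1 binding to fluorescent RNA.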 In general terms: Fluorescence polarisation rises when a labelled molecule tumbles more slowly, as on binding a larger partner.

Assay [4] has as its target T3, Zinc finger protein mex-5 (Caenorhabditis elegans, UniProt Q9XUB2).
T3 sequence (Q9XUB2 whole entry): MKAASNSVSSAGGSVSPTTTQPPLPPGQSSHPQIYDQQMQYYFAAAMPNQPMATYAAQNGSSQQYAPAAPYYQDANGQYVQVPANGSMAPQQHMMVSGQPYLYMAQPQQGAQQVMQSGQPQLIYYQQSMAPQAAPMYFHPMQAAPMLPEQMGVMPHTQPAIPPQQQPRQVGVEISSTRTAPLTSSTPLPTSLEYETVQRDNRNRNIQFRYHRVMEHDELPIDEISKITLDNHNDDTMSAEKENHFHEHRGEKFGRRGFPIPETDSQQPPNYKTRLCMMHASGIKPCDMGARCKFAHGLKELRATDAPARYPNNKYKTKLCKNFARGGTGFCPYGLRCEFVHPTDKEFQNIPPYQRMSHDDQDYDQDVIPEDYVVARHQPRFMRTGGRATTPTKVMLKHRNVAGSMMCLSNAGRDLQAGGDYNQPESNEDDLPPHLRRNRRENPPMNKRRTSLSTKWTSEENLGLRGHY
Description: potency of MEX-5 RNA-binding blockers – biochemical, C. elegans, fluorescence polarization, dose response (AID 1960).

Assay [5] has as its target T4, Endoribonuclease toxin MazF (Escherichia coli K-12, UniProt P0AE70).
T4 sequence (P0AE70 whole entry): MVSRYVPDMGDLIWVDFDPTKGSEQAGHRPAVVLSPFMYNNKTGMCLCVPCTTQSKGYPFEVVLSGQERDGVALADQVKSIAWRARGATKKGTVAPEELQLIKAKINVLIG
The assay can be described thus: activation of MazEF endoribonuclease cleavage – biochemical, fluorescence, single-stranded RNA substrate, uHTS hits, dose response (AID 588481). It is filed as functional.

Assay [6] has as its target T4, Endoribonuclease toxin MazF. The assay can be described thus: substrate-only fluorescence increase artefacts – biochemical, single-stranded RNase substrate, counter-screen for MazEF activator project, dose response (AID 588502). The assay is classed as functional. Background: Counterscreens check selectivity or assay interference.
The target of assay [7] is T5, Corticotropin-releasing factor receptor 2/Corticotropin-releasing factor-binding protein (Homo sapiens, UniProt P24387+Q13324).
T5 sequence (Q13324 whole entry): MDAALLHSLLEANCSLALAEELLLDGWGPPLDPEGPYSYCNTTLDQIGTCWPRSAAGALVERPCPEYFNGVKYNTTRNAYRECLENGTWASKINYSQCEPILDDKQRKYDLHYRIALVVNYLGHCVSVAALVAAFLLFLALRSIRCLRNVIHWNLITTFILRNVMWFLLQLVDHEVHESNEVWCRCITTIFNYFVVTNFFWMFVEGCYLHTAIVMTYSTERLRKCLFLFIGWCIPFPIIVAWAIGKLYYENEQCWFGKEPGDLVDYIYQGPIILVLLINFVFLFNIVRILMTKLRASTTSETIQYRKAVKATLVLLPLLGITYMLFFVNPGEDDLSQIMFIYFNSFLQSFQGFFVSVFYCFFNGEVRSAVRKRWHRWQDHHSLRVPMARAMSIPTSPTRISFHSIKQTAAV
T5 sequence (P24387 whole entry): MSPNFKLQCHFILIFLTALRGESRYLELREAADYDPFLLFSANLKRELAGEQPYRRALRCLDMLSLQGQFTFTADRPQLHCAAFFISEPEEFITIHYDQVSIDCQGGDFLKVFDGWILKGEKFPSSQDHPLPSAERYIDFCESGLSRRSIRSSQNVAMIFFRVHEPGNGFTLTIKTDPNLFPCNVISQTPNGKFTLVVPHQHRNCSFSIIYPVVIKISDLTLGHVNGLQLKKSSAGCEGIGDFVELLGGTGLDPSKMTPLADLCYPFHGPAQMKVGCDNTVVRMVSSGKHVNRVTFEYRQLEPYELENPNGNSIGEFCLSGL
The assay can be described thus: activators of CRF receptor 2 with binding protein – uHTS hits, confirmation (AID 602473). It is filed as functional. To be noted: read-out: EC50_Mean.

Assay [8] in a line: microbe, parasite or virus in culture. To be noted: Mycobacterium tuberculosis. The assay is classed as functional.
Assay [9] concerns the target T6, Apoptotic protease-activating factor 1 (Homo sapiens, UniProt O14727).
T6 sequence (O14727 whole entry): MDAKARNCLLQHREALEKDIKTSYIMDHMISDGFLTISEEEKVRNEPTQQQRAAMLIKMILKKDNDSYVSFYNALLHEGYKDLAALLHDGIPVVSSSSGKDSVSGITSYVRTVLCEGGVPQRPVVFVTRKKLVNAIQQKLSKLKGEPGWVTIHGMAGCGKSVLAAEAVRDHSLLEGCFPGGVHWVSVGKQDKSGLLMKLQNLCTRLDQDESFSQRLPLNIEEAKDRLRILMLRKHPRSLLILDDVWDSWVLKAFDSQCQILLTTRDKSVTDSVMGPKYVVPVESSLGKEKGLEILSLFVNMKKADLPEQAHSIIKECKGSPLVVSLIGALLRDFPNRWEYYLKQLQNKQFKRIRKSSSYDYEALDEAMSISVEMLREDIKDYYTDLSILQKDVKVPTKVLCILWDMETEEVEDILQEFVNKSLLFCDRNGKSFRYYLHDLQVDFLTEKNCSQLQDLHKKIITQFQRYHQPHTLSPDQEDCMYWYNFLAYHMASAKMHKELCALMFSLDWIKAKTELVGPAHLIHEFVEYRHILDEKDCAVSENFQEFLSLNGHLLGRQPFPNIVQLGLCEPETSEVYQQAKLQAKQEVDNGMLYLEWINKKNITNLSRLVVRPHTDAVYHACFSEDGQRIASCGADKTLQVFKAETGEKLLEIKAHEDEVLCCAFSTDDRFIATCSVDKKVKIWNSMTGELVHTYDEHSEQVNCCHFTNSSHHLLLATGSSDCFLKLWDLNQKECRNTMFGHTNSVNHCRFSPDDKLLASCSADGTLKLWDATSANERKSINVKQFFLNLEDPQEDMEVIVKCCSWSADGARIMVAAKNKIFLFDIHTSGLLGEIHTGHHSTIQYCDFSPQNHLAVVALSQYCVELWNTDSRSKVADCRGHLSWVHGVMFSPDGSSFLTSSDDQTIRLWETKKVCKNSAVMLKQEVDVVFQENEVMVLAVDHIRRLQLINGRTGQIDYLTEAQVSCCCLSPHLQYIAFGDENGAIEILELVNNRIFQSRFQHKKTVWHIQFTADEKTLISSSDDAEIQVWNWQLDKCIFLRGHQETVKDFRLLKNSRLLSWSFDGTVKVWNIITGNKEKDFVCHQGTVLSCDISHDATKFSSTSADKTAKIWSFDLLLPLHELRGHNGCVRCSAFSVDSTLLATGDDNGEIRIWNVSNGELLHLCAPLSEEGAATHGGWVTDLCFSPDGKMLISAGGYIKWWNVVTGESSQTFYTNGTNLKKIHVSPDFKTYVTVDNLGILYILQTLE
The assay is classed as functional.

Assay [10] in a line: luciferase reporter signal suppression in cells – H4 neuroglioma cells, luminescence, dose response (AID 1990). It is filed as functional, cell-based.
A short description of assay [11]: Luminescence Cell-Based Dose Response HTS to Identify Inhibitors of 5'UTR Stem-Loop Driven Prion Protein mRNA Translation in H4 Neuroglioblastoma Cells. [Related pubchem assays: 1827 (Project Summary), 1813 (Primary HTS)]. The assay is classed as functional.
Assay [12] in a line: alpha-synuclein stem-loop luciferase translation blockers – H4 neuroglioma cells, luminescence, confirmation (AID 1988). It is filed as functional, cell-based.
Assay [13] in a line: Luminescence Cell-Based Dose Retest to Confirm Inhibitors of Cancer Stem Cells. [Related pubchem assays (depositor defined):AID2717, AID2721]. It is filed as functional. To be noted: Homo sapiens.
In assay [14] the target is T7, Ubiquitin-conjugating enzyme E2 N (Homo sapiens, UniProt P61088).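 Note: Dose-response confirmation in a TR-FRET assay detecting UBC13-driven polyubiquitin chain formation, inhibition measured.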
T7 sequence (P61088 whole entry): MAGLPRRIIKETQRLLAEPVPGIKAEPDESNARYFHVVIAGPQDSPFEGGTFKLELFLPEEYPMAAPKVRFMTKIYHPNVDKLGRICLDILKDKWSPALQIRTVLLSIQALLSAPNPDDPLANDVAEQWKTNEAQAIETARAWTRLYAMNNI
It is filed as functional.

A short description of assay [15]: viability of PTEN-deleted HCT116 cells – cell-based, HCT116 PTEN knockout, dose response (AID 1047).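 Note: HCT116 colon tumor cells with PTEN knocked out; cells exposed to compound for 60 hours before readout; potency for loss of cell viability measured by luminescence.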 It is filed as functional.
The nature of assay [16]: viability of HCT116 lacking mutant beta-catenin – cell-based, human colon tumor, dose response (AID 1045).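 Note: HCT116 colon tumor cells with beta catenin knocked out; cells exposed to compound for 60 hours.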 The assay is classed as functional.
The target of assay [17] is Heat shock protein HSP 90-alpha (Homo sapiens, UniProt P07900). The assay is classed as functional, organism-based.
The next assay relates to INS1. Description: INS-1E survival protection against cytokine death – cell-based, luminescence, retest, dose response (AID 449756).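 Note: cell death triggered by IL-1 beta plus TNF-alpha plus IFN-gamma mixture; protective hits raise ATP signal compared with cytokine alone wells.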 It is filed as functional. To be noted: Rattus norvegicus.
The target in another assay is Paired box protein Pax-8 (Homo sapiens, UniProt Q06710). The assay can be described thus: PAX8 transcriptional activity inhibition in RMG-I – RMG-I cells, luciferase, cherry-pick, dose response (AID 687027).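 Note: luciferase reporter driven by Pax8 target thyroperoxidase promoter measured by SteadyGlo luminescence.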 It is filed as functional, cell-based.
Assay [18] in a line: blockers of bursicon-stimulated LGR2 cAMP reporter – cell-based, HEK293, CRE-luciferase reporter, cherry pick, set 2, dose response (AID 743343).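 Note: transfected cells were stimulated with diluted bursicon conditioned medium after compound addition.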 The assay is classed as functional.
Assay [19] in a line: general cell-killing toxicity readout – plate reader, dry powder samples, cytotoxicity control for PAX8 inhibitor project, dose response (AID 743021). It is filed as functional, cell-based.
Assay [20] can be described thus: blockade of melanocortin 4 receptor signaling – cell-based, plate reader, cherry pick, counter-screen for LGR2 antagonist project, dose response (AID 743444).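 Note: transfected HEK 293 cells stimulated with alpha-MSH peptide; potency of inhibitors of the alpha-MSH evoked signal.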 It is filed as functional.

T1 sequence (P49327 whole entry): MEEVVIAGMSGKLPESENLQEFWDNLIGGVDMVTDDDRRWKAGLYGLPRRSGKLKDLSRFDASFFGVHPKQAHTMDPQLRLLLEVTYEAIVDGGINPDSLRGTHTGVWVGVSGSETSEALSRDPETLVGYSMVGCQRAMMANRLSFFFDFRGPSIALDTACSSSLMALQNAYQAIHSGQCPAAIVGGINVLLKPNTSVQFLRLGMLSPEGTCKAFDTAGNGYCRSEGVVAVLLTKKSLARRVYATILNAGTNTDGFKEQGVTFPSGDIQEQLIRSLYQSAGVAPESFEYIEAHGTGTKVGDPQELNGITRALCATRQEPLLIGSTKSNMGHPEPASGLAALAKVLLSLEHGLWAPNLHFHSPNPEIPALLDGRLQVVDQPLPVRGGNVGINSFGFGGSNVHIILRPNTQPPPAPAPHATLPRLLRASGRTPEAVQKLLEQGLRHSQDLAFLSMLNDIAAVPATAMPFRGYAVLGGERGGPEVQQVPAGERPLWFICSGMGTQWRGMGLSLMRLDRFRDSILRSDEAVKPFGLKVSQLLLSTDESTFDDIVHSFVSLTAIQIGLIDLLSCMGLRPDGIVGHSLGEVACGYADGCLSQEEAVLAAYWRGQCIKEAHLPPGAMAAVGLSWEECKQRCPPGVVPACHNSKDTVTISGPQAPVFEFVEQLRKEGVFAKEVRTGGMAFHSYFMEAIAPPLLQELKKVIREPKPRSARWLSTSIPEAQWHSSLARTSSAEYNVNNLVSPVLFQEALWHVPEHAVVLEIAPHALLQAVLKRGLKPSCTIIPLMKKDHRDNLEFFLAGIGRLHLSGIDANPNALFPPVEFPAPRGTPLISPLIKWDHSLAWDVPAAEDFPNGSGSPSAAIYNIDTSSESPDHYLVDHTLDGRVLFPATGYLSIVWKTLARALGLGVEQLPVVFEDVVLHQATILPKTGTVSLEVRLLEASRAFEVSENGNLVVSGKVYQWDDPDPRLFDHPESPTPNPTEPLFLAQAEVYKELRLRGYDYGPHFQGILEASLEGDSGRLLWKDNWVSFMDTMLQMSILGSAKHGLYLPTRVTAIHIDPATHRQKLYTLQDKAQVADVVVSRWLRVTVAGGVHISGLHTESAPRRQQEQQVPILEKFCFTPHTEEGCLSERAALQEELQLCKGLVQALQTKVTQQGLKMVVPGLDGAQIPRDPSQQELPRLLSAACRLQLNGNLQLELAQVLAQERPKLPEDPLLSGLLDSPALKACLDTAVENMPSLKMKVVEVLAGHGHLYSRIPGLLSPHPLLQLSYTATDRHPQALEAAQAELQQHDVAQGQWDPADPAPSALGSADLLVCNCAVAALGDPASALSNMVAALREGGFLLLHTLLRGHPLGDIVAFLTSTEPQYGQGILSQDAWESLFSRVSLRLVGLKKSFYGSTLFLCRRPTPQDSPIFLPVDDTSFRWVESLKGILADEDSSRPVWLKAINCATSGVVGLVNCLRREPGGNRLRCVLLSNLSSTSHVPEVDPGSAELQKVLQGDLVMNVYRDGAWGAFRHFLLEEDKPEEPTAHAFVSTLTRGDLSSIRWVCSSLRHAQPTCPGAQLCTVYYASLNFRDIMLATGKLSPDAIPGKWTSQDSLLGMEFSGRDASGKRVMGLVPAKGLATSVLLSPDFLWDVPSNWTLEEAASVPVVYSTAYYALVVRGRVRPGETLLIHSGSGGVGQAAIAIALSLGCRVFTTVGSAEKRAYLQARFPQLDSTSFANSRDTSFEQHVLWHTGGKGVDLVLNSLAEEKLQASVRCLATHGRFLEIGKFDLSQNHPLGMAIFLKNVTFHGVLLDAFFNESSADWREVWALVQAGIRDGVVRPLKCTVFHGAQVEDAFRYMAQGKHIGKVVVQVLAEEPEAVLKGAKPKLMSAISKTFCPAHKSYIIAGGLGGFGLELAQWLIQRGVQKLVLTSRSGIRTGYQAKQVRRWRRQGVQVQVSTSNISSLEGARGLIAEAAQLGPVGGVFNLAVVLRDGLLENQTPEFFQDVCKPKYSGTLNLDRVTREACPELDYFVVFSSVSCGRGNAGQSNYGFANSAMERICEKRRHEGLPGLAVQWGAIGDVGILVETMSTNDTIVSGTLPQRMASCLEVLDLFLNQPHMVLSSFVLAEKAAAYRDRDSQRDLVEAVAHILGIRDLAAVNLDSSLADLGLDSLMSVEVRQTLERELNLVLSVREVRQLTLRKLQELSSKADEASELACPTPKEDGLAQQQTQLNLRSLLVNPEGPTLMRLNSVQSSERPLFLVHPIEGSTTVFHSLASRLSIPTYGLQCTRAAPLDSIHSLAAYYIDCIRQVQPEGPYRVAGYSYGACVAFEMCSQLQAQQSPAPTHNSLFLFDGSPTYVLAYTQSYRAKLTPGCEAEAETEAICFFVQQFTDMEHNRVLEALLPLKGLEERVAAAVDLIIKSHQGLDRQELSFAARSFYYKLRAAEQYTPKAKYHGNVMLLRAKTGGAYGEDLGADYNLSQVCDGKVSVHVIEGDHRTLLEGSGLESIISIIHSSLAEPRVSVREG
Sequence of Paired box protein Pax-8 (Q06710 whole entry): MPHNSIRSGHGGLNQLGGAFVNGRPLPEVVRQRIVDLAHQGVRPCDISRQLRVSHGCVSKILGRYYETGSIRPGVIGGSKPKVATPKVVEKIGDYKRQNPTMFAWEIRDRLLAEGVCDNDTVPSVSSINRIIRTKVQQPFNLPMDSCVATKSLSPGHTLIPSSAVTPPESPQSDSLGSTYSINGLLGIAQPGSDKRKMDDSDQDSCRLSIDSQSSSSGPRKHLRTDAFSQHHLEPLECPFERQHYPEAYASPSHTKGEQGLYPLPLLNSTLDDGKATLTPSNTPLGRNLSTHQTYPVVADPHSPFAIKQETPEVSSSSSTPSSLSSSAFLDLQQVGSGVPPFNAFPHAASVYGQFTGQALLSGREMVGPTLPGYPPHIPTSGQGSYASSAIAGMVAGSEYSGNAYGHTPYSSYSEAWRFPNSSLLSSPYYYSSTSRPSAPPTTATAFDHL

For `CC(C)(C)OC(=O)CNC(=O)c1[nH]cnc1C(=O)N[C@@H](CCCCNC(=O)OC(C)(C)C)C(=O)OC(C)(C)C`, the figures for the IC50 on Fatty acid synthase [1] and on Fatty acid synthase [2] were 0.517 µM (active) and 0.364 µM (active), respectively.
Take `COC(=O)Cn1cc(/C=C2\C(=O)NC(=O)N(c3ccc(OC)cc3)C2=O)c2ccccc21`: the EC50 in [3] is 69.1 µM (active); in assay [4] it was 6.99 µM (active); in [5], > 99 µM (inactive); in [6], 71.4 µM (inactive); in assay [7], 5.57 µM (active).
`O=C(CN1CCN(C(=O)COc2cccc(F)c2)CC1)Nc1ccc(Cl)c(C(F)(F)F)c1`: in assay [8], the CC50 was > 40 µM (active).
As for `COc1ccc(CN2C(=O)NC(=O)/C(=C/c3ccc[nH]3)C2=O)cc1`, the EC50 in [5] and in assay [6] was > 99 µM (inactive) throughout.
`CC(C)(C)c1ccc(OCCC(=O)OCC(=O)NCc2ccccc2)cc1`: the half-inhibitory concentration (IC50) was 6.55 µM (active) on Fatty acid synthase [1] and 6.7 µM (active) at Fatty acid synthase [2].
Turning to `COc1ccc(/C=C/c2cc(=O)c3cc(Cl)ccc3o2)cc1`, the results for the EC50 in assay [5] and in assay [6] were > 99 µM (inactive) and 38 µM (inactive), respectively.
Regarding `O=C(CCn1c2c(c3ccccc31)CCCC2)NNC(=O)c1ccc(Cl)c([N+](=O)[O-])c1`, the IC50 in assay [9] was 0.798 µM (active).
Regarding `O=C(OCC(=O)N1CCc2ccccc2C1)c1ccc(Cl)c([N+](=O)[O-])c1`, the 50% inhibitory concentration (IC50) at Fatty acid synthase [1] was 5.45 µM (active); on Fatty acid synthase [2] it was 2.41 µM (active).
As for `CCN1CCN(Cc2ccc(NC(=O)c3cc(NC(=O)c4cncc(-c5cccs5)c4)cc(OC)c3)cc2C(F)(F)F)CC1`, the EC50 is > 120 µM (not active) in assay [10], 8.93 µM (active) in [11] and > 120 µM (not active) in assay [12]. Moreover, the CC50 in [8] was 8.62 µM (active). The concentration at half-maximal activity (AC50) in assay [13] is 7.38 µM (active). The IC50 in assay [14] was > 20 µM (inactive).
Consider `CCCCOc1ccc(C(=O)NCC(=O)NCC(c2cccs2)N2CCOCC2)cc1` (stereo unspecified), for which the IC50 in assay [9] is > 100 µM (inactive).
On to `Cc1cc(Br)ccc1NC(=O)C(C)c1ccc([N+](=O)[O-])cc1` (stereo unspecified), for which the IC50 on Fatty acid synthase [1] is 31.9 µM (inactive); at Fatty acid synthase [2] it was 18.8 µM (active).
With `O=[N+]([O-])c1ccc(NN=Cc2ccc3c(c2)OCO3)nc1`, the EC50 in assay [5] was 40.5 µM (inactive); in assay [6], > 99 µM (inactive).
Consider `Cn1c(SCC(=O)N/N=C/c2ccc([N+](=O)[O-])s2)nnc1-c1ccc(Cl)cc1`, for which the EC50 is 4.91 µM (active) in [15] and 4.82 µM (active) in [16]. In addition, the half-maximal activity concentration (AC50) in [17] is 2.55 µM (active); in the assay on INS1 it was 9.33 µM (active).
Regarding `Cc1ccc2nc(-c3ccc(Br)cc3)cn2c1`, the AC50 on Paired box protein Pax-8 was 11.2 µM (active); in [18] it was 0.662 µM (active); in assay [19], 24.6 µM (active); in assay [20], 0.704 µM (active).

By IC50 is commonly meant the midpoint of a concentration-inhibition curve. For orientation: AC50 means the concentration giving half of the maximal activity seen.

The record behind these values is ChEMBL document CHEMBL1201862, “PubChem BioAssay data set” (2004).
